Experimental findings from patent US20250313820A1, “PEPTIDES WITH MULTIVALENT EFFECTS” (In2Cure AB, priority 2021, published 2025) are described below.

Where two headings read alike, the source gives them in different places.

Series [1] deals with release of TNF-α in LPS stimulated blood. In words: Whole blood assay with cytokine ELISA: TNF-α. The series is classed as cell-based. As to conditions: 25% human blood, 100 ng mL^−1 E. coli LPS, 24 h; read-out: Anti-inflammatory activity: Peptide concentration that reduces by 50% the release of TNF-α in LPS stimulated blood. As to the method:
(§1) Fresh venous blood was collected in the presence of lepirudin (50 μg mL^−1) from healthy donors. […] After 24 h incubation at 37° C. in 5% CO2, the plate was centrifuged for 5 min at 1000 g and then the supernatants were collected and stored at −80° C. before analysis. The experiment was performed at least 4 times by using blood from different donors each time. To evaluate the healing properties of the peptides, the blood was stimulated with 100 ng mL^−1 LPS and after 30 min incubation at 37° C. was treated with increasing doses of four peptides. […] Then the blood was stimulated with 100 ng mL^−1 of LPS.
(§2) Plasma obtained from blood experiment was used to evaluate cytokine release. Human inflammation DuoSet® ELISA Kit (R&D Systems) specific for TNF-α and IL-1β was used according to the manufacturer's instructions. Absorbance was measured at a wavelength of 450 nm. Data shown are mean values±SEM obtained from at least four independent experiments all performed in duplicate.
(§3) For each experiment blood from a different donor was used.
(§4) Plasma obtained from blood experiments was used to evaluate cytokine release. […] Absorbance was measured at a wavelength of 450 nm. […]
as §4

The subject of series [2] is cytokines released from human blood stimulated with E. coli LPS. In words: Whole blood assay, cytokines overall (TNF-α and IL-1β). The series is classed as cell-based. As to conditions: 25% blood, 100 ng mL^−1 LPS, peptide added before or together with LPS, 24 h. As to the method: as §1, §2, §3, §4, §4
The next series has as its system erythrocytes (RBCs). The series is classed as cell-based, human. As to the method:
(§5) Fresh venous blood from healthy donors was collected in lepirudine tubes (50 μg mL-1). Then 50 μL of blood were transferred to round-bottom 96-wells plate containing 150 μL of peptides previously diluted in RPMI-1640—GlutaMAX-I without phenol red (Gibco). 1:4 diluted blood was used as control. 50 μL of blood mixed with 150 μl 5% Tween-20 were used as positive control. After 1 h incubation at 37° C. and 5% CO2, the plate was centrifuged at 800 g, 150 μL of each sample were transferred to a flat-bottom 96-wells plate and the absorbance at 450 nm was measured. The percentage of hemolysis was calculated following the formula reported below: […]
To evaluate the hemolytic effect of the peptides on erythrocytes the blood was collected as reported above and centrifuged at 250 g for 10 min. Then plasma was discarded, and red blood cells were washed with 150 mM NaCl in 10 mM Tris pH 7.4 for three times. Next, the pellet was dilute 100 times with saline Tris buffer. 100 μL of this solution were added to round-bottom 96-wells plate containing 100 μL of peptides previously diluted in saline Tris buffer. After 1 h incubation at 37° C. and 5% CO2, the plate was centrifuged and the absorbance at 450 nm was measured, then the percentage of erythrocyte lysis was determined using formula reported above.
(§6) Data shown are mean values±SEM obtained from at least four independent experiments all made in triplicate. For each experiment blood from a different donor was used.

The subject of another series is whole blood. Format: cell-based, human. The procedure:
as §5, §6

The target of series [3] is T1, human neutrophil elastase (HNE) (Homo sapiens, UniProt P08246).
T1 construct: purchased Calbiochem, Merk KGaA, Darmstadt, Germany
T1 sequence (P08246 30-267): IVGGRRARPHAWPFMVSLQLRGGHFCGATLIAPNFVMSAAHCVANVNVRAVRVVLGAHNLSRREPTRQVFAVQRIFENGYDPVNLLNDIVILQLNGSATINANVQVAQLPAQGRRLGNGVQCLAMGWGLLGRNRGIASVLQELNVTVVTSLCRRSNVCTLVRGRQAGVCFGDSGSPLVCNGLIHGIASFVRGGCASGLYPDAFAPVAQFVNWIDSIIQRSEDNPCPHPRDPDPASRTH
Format: in vitro ADME.
Experimental: (§7) Peptides were resuspended in endotoxin free water at concentration of 1 mM. […] All digestions were performed in three independent experiments.

The target of series [4] is T2, P. aeruginosa elastase (PE) (Pseudomonas aeruginosa, UniProt P14756).
T2 construct: purchased Calbiochem, Merk KGaA, Darmstadt, Germany
The series is classed as in vitro ADME. The settings on record: SDS-PAGE, digestion 0-18 h. The procedure:
All digestions were performed in three independent experiments.
Two μg of the peptide from each condition were loaded on 10-20% Novex Tricine pre-cast gel from Invitrogen (USA). The run was performed at 100 V for 100 min. The gel was stained by using Coomassie Brilliant blue (Invitrogen, USA). The image has been acquired with a Gel Doc Imager (Bio-Rad Laboratories, USA). Samples from three independent digestions were analysed.

The target of a further series is T3, trypsin (Sus scrofa, UniProt P00761).
T3 construct: purchased Promega, Madison, WI, USA
The series is classed as in vitro ADME.

In series [5] the test system is proteases (HNE, PE, V8, trypsin). In words: Proteolysis in vitro, fragments by LC-MS/MS.
Experimental: as §7

T3 sequence (P00761 9-231): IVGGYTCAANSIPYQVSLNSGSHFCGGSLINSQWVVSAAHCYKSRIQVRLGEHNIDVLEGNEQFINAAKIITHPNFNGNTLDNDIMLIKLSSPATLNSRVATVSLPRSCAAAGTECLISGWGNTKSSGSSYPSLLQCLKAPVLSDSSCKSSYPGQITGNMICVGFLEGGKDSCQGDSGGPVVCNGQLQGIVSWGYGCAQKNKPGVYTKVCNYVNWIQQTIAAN
T2 sequence (P14756 198-498): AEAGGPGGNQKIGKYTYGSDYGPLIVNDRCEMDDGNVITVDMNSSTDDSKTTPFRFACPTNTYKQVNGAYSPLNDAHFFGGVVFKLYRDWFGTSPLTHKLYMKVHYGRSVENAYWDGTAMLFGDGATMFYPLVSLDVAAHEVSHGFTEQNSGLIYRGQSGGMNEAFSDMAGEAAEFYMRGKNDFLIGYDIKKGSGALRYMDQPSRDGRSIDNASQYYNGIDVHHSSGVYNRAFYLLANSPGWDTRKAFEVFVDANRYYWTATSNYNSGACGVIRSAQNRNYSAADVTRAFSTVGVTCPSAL

In the case of “cyclo[GKYGE]YTHVFRLKKWIXKVIXQFGE [2sGKY25]”, the IC50 in series [1] was found to be 8 ± 2.3 µM. Further, in series [2], the “anti-inflammatory activity in LPS-stimulated blood (TNF-α and IL-1β release), in words” value is “better suppression of LPS-induced TNF-α and IL-1β release than GKY25”. For the same molecule, in the series with erythrocytes (RBCs), the “Hemolytic activity, lysed RBCs” value was found to be 49.1 ± 13.6%. In addition, in the series with whole blood, the “Hemolytic activity, lysed RBCs in whole blood” value is given as less than 1% and the “hemolytic activity in whole blood, in words” value is on record as “slightly lower than for sGKY25, but definitely higher than for sHVF18”.
Turning to `CC[C@H](C)[C@H](NC(=O)[C@H](Cc1c[nH]c2ccccc12)NC(=O)[C@H](CCCCN)NC(=O)[C@H](CCCCN)NC(=O)[C@H](CC(C)C)NC(=O)[C@H](CCCNC(=N)N)NC(=O)[C@H](Cc1ccccc1)NC(=O)[C@@H](NC(=O)[C@@H](N)Cc1c[nH]cn1)C(C)C)C(=O)N[C@@]1(C)CCCC=CCCC[C@@](C)(C(=O)N[C@@H](CCC(N)=O)C(=O)N[C@@H](Cc2ccccc2)C(=O)NCC(=O)N[C@@H](CCC(=O)O)C(=O)O)NC(=O)[C@H]([C@@H](C)CC)NC(=O)[C@H](C(C)C)NC(=O)[C@H](CCCCN)NC1=O` [sHVF18, HVFRLKKWIXKVIXQFGE], the “hemolytic activity, RBCs or whole blood (heatmaps FIG. 4, FIG. 20a), in words” value with erythrocytes (RBCs) was “lower hemolytic activity if compared with sGKY25”. For the same molecule, the “Hemolytic activity, lysed RBCs” value in the series with erythrocytes (RBCs) (1 h) was 35.4 ± 5.9%. Further, in the series on whole blood, the “hemolytic activity in whole blood, in words” value was “significantly lower hemolytic activity”. The “Hemolytic activity, lysed RBCs in whole blood” value in the series with whole blood (1 h) is on record as less than 1%. In addition, the “stability in the presence of HNE enhanced up to (time)” value in series [3] is given as “up to 18 h”. In series [4], the “stability in the presence of PE enhanced up to (time)” value is on record as “up to 18 h”. Further, the “intact peptide still detected after trypsin digestion (time)” value at trypsin is no less than 18 h. The “protection to proteolysis / fragments released (LC-MS/MS)” value in series [5] is “complete protection to proteolysis”.
